Laboratory results from patent US7220780B2, “Naaladase inhibitors for treating retinal disorders and glaucoma” (Guilford Pharmaceuticals Inc., priority 2000, dated 2007).
Peptide text beside a SMILES is read from it.

Assays:
[1] = tested on: BB/W rats; assay: Retinal pathology in diabetic BB/W rats (basement membrane thickness, E/P ratio); type: in vivo, rat; settings: for BM THICKNESS (nm) ± SD (n = 3) / E/P RATIO (n = 8–10): diabetic rats
Method: Four (4) groups of rats received daily insulin injections to maintain their glucose levels at about 350 mg/dl. Starting at the onset of hyperglycemia, NAALADase inhibitor 2-(3-sulfanylpropyl)-pentanedioic acid was administered daily for 6 months to one group of BB/W rats at a dose of 10 mg/kg and to a second group of BB/W rats at a dose of 30 mg/kg. A third group of BB/W rats and a fourth group of non-diabetic rats received daily vehicle treatment (50 mM Hepes buffered saline).
After six (6) months of NAALADase inhibitor or vehicle treatment, the rats were sacrificed and their eyes were removed. From each rat, one eye was processed for elastase digest while the other eye was processed for transmission electron microscopy (TEM) and basement membrane (BM) thickness.
Retinal digests were prepared using elastase on retinas as described in Layer, N. , Invest Ophthalmol Vis Sci (1993) 34:2097. Eyes were removed from recently killed BB/W rats (n=25) and age-matched transgenic controls (n=10). The retinas (n=35) were fixed at room temperature by immersing the whole eye (slit at limbus) in 4% (w/v) paraformaldehyde in 50 mmol/L Na-K phosphate buffer with 8% sucrose. The fixed retinas were rinsed in deionized water and were incubated for 3 minutes in a 37° C. agitating water bath in 40 units/mL elastase in Na-K phosphate buffer with 150 mmol/L NaCl and 5 mmol/L ethylenediamine tetraacetic acid (EDTA), pH 6.5. The tissues were washed overnight in 100 mmol/L Tris-HCL (pH 8.5) and then transferred to deionized water for removal of the loosened vitreous and digested neural elements by gentle agitation using the sides of closed forceps and the sides and ends of very fine brushes. After all loose tissues were removed, the retinas were incubated once more in fresh enzyme for 3 minutes and then subjected to a second overnight wash at room temperature in Tns-HCl buffer. On the third day, the retinas were again transferred to deionized water for additional removal of digested neural elements. The vascular network that was completely free of nonvascular elements was mounted flat by flotation in Ca^2+ and Mg^2+ free Dulbecco's PBS on siliconized slides (#S1308, Oncor, Gaithersburg, Md.). After air drying in a dust free environment, the mounts of the retinal microvasculature were stained using periodic acid Schiff reaction and hematoxylin counterstaining, as described in Luna, L., ed. Manual of Histologic Staining Methods of the Armed Forces Institute of Pathology (1968) McGraw-Hill, New York, N.Y. The preparations were then examined by light microscopy and photographed.
The stained and intact retinal whole mounts were coded and subsequent counting was done masked, as described in Cuthbertson, R., Invest Ophthalmol Vis Sci. (1986) 27:1659-1664).
Ten fields at ×100 magnification were counted for endothelial and pericyte cells using previously described morphologic criteria (see Kuwabara, T., Arch Ophthalmol. (1960) 64:904-911). In every sample, at least 200 cells were counted from the mid zone of the retina. Mean values for endothelial cell/pericyte (E/P) ratios were initially calculated in 3 retinas from each of the four (4) groups of rats.
Each eye was fixed in 4% glutaraldehyde and dissected free of sclera and choroids, then trimmed and postfixed in 1% osmium tetroxide. After dehydration and embedding, thin sections were stained with uranyl acetate and lead citrate. Initially, EM thickness of retinal capillaries from 3 non-diabetic rats receiving vehicle, 3 diabetic animals receiving 10 mg/kg 2-(3-sulfanylpropyl)-pentanedioic acid, and 3 diabetic rats receiving 30 mg/kg 2-(3-sulfanylpropyl)-pentanedioic acid were compared with 3 diabetic rats receiving a vehicle. At least 10 capillaries per eye from the inner nuclear and plexiform layers were photographed at a magnification of 10,000×. Exact magnification was determined for each set of negatives with a 28,800 line/inch calibration grid. Negatives were enlarged 3×. […]

[2] = tested on: male Brown Norway rats; assay: Experimental rat glaucoma (IOP elevation by hypertonic saline), optic nerve fiber counting; type: in vivo; settings: 10 mg/kg daily i.p.
Method: (§1) All experiments complied with the Association for Research in Vision and Ophthalmology Statement for the Use of Animals in Ophthalmic and Vision Research. 82 male Brown Norway rats (Rattus norvegicus), each weighing approximately 250 gm, were treated using procedures approved by the Animal Care Committee of the Johns Hopkins University School of Medicine. The rats were housed with a 12 hour light/12 hour dark cycle and fed ad libitum .
EXPERIMENTAL GLAUCOMA: Unilateral elevation of IOP was produced in 56 rats by microinjection of hypertonic saline into episcleral veins, following procedures described in Morrison, J. et al., IOVS (March 1998) 39:526-531. Beginning on the day of IOP elevation, the rats were treated daily with intraperitoneal injections of either a vehicle (23 rats with 50 mM HEPES-buffered saline) or a NAALADase inhibitor (11 rats with 10 mg/kg of 2-[[(2,3,4,5,6-pentafluorobenzyl)hydroxyphosphinyl]-methyl]pentanedioic acid (“Compound A”) and 22 rats with 10 mg/kg of 2-(3-sulfanylpropyl)pentanedioic acid (“Compound B”)). 11 saline treated rats, 11 Compound A treated rats and 11 Compound B treated rats were sacrificed at 8 weeks, and the remaining rats at 12 weeks, after initial IOP elevation.
(§2) OPTIC NERVE COUNTING: The rats were sacrificed by exsanguination under deep pentobarbital anesthesia. They were perfused through the heart with 2% paraformaldehyde/2% glutaraldehyde in 0.1 M phosphate buffer, pH 7.2, and the eyes with attached optic nerves were removed. A cross-section of the optic nerve from both experimental (glaucoma or transection) and control eyes was removed 1.5 mm posterior to the globe, 1 mm in thickness, and post-fixed in 2% osmium tetroxide in buffer. These were processed into epoxy resin, sectioned at 1 micron and stained with toluidine blue.
(§3) The area of the optic nerve cross-section was measured by outlining its outer border at 10×magnification on an image analysis system (Universal Imaging Corp., Westchester, Pa.) with Synsys digital camera and Metamorph software. Three area measurements were taken and the mean value was determined. To measure the density and fiber diameter distributions, images were captured with a 100× phase contrast objective from 10 different areas of each nerve. These were edited to eliminate non-neural objects and the size of each axon internal to the myelin sheath (its minimum diameter) and the density of axons/square mm were calculated for each image and nerve. The mean density was multiplied by total nerve area to yield fiber number for each nerve. The total fiber number in glaucoma or transection nerves was compared to the normal, fellow eye of each rat to yield a percent loss value. The number of axons counted among the 10 images was an approximately 20% sample of the 80-90,000 axons in normal rat nerves. The person measuring axon number was masked to the protocol conducted on the nerves.

[3] = tested on: male Brown Norway rats; assay: Optic nerve transection in rats, optic nerve fiber counting; type: in vivo, Rattus norvegicus; settings: for FIBER NUMBER ± SEM / PERCENT DIFFERENCE ± SEM: 10 mg/kg daily i.p.; for PERCENT DIFFERENCE ± SEM: transected vs normal eye
Method: as §1
OPTIC NERVE TRANSECTION: The optic nerve was transected unilaterally in 26 rats under intraperitoneal pentobarbital anesthesia. The conjunctiva was opened with scissors and the optic nerve exposed by traction on extraocular muscles. The transection was performed with microscissors 5 mm posterior to the globe, with specific attention to avoidance of injury to major ocular blood vessels. Immediately after transection, the retina was examined ophthalmoscopically to assure that the retinal arterial blood supply was not disrupted. The conjunctiva was closed with absorbable suture and the eye dressed with antibiotic ointment. Beginning on the day of transection, the rats were treated daily with intraperitoneal injections of either a vehicle (9 rats with 50 mM HEPES-buffered saline) or a NAALADase inhibitor (8 rats with 10 mg/kg of Compound A and 9 rats with 10 mg/kg of Compound B). 5 saline treated rats, 3 Compound A treated rats and 4 Compound B treated rats were sacrificed at 2 weeks, and the remaining rats at 4 weeks, after transection.
as §2, §3

[4] = molecular target: NAALADase (Rattus norvegicus, UniProt P70627); settings: NAAG as substrate of NAALADase; cited from earlier work
[5] = 10 mg/kg daily for 6 months, 10 mg/kg
[6] = 10 mg/kg daily for 6 months, listed as NAALADASE INHIBITOR, 10 mg/kg
[7] = 30 mg/kg daily for 6 months, 30 mg/kg
[8] = 30 mg/kg daily for 6 months, listed as NAAALADASE INHIBITOR, 30 mg/kg
[9] = high dose (30 mg/kg), six months, vs diabetic vehicle
[10] = low dose (10 mg/kg), six months, vs diabetic vehicle
[11] = 2 weeks survival after transection
[12] = 4 weeks survival after transection

NAALADase, sequence (P70627 whole entry): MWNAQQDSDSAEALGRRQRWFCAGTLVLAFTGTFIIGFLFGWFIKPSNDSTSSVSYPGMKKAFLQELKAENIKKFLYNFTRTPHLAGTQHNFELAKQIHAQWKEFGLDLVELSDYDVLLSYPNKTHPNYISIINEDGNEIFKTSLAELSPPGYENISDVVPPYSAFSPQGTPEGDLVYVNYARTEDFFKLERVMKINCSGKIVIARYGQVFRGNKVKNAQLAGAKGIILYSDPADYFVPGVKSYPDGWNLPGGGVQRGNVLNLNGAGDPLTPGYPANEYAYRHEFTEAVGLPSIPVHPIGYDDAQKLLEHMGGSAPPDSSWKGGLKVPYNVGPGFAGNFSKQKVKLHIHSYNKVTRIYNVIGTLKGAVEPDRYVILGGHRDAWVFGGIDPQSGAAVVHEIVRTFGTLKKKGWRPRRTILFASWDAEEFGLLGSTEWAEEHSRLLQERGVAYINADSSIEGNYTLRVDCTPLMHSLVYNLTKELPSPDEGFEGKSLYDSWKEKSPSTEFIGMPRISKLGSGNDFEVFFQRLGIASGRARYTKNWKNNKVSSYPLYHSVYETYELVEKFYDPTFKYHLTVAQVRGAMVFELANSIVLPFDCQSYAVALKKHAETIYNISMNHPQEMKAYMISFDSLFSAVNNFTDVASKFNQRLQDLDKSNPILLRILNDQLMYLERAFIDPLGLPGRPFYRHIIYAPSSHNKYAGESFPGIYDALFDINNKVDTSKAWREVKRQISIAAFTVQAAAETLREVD

## O=C(O)CCC(CCCS)C(=O)O (stereo not drawn) [Compound B, 2-(3-sulfanylpropyl)pentanedioic acid]
[1]; [5]
  BM THICKNESS (nm) ± SD (n = 3): 82.3±4.07 nm
  E/P RATIO (n = 8–10): 2.4±0.5
[1]; [6]
  BM THICKNESS (nm) ± SD (n = 3): 82.3 ± 4.07 nm
  E/P RATIO (n = 8–10): 2.4 ± 0.5
[1]; [7]
  BM THICKNESS (nm) ± SD (n = 3): 71.7±4.07 nm
  E/P RATIO (n = 8–10): 1.9±0.4
[1]; [8]
  BM THICKNESS (nm) ± SD (n = 3): 71.7 ± 4.07 nm
  E/P RATIO (n = 8–10): 1.9 ± 0.4
[1]; [9]
  reduction in BM thickness: 29.0%
  reduction of E/P ratios: 37%
[1]; [10]
  decrease in BM thickness: 18.5%
  reduction of E/P ratios: 20%
[2]; 8 week group
  FIBER NUMBER ± SEM: 80785 ± 2121
[2]; 8 week group, fiber number glaucoma vs normal eye, positive = fewer fibers in glaucoma eye
  PERCENT DIFFERENCE ± SEM: −0.82 ± 2.97%
[2]; 8 week group, glaucoma eye vs normal eye
  IOP INTEGRAL DIFFERENCE ± SEM: 116 ± 33.2 mm Hg—days
[2]; 12 week group
  FIBER NUMBER: 90504 ± 1718
[2]; 12 week group, fiber number glaucoma vs normal eye
  PERCENT DIFFERENCE: −3.21 ± 2.86%
[2]; 12 week group, glaucoma eye vs normal eye
  IOP INTEGRAL DIFFERENCE: 109 ± 45.2 mm Hg—days
[3]; 2 weeks after transection
  remaining axons relative to the saline-treated rats: twice
[3]; [11]
  FIBER NUMBER ± SEM: 19,550 ± 5,091
  PERCENT DIFFERENCE ± SEM: 75.3 ± 6.6%
[3]; [12]
  FIBER NUMBER ± SEM: 5,162 ± 2,509
  PERCENT DIFFERENCE ± SEM: 93.4 ± 3.1%

## CC(=O)N[C@@H](CC(=O)O)C(=O)N[C@@H](CCC(=O)O)C(=O)O [NAAG, N-acetyl-aspartyl-glutamate] (Ac-Asp-Glu-OH)
[4]
  Km: 0.54 µM
